Assay results reported in patent US11274083B2, “Substituted thiophenyl uracils, salts thereof and the use thereof as herbicidal agents” (Syngenta Crop Protection AG, priority 2017, dated 2022).

Columns and labels:
Format in all cases: in vivo
Abutilon theophrasti [1] = assay: Herbicidal action post-emergence, greenhouse pot test
Method in brief: (§1)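 Weeds were sown in sandy loam and grown in a greenhouse for 2 to 3 weeks, then sprayed at the one-leaf stage with WP or EC formulations plus 0.5% additive at 600 L/ha water, at 80 g/ha or lower. Efficacy was scored visually about 3 weeks later against untreated controls.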

Alopecurus myosuroides [2] = assay: as above; conditions: application rate 80 g/ha, scored visually after about 3 weeks vs untreated controls
Method in brief: as §1

Amaranthus retroflexus [3] = assay: as above
Method in brief: as §1

Avena fatua [4] = assay: as above; conditions: application rate 80 g/ha
Method in brief: as §1

Echinochloa crus-galli [5] = assay: as above
Method in brief: as §1

Lolium rigidum [6] = assay: as above; conditions: application rate 80 g/ha
Method in brief: as §1

Matricaria inodora [7] = assay: as above
Method in brief: as §1

Pharbitis purpurea [8] = assay: as above
Method in brief: as §1

Polygonum convolvulus [9] = assay: as above; conditions: application rate 80 g/ha
Method in brief: as §1

Stellaria media [10] = assay: as above
Method in brief: as §1

Veronica persica [11] = assay: as above
Method in brief: as §1

Viola tricolor [12] = assay: as above
Method in brief: as §1

Oryza sativa = assay: Crop compatibility post-emergence, greenhouse pot test; conditions: application rate 20 g/ha
Method in brief: (§2)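 Crops grown in sandy loam in greenhouse pots; treated post-emergence at one-leaf stage, 2–3 weeks after sowing, spraying WP or EC formulations as aqueous suspension/emulsion with 0.5% additive at 600 L/ha. Damage scored visually after about 3 weeks against untreated controls (0% = like control, 100% = dead).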

Triticum aestivum = assay: as above
Method in brief: as §2

Zea mays = assay: as above; conditions: application rate 20 g/ha
Method in brief: as §2

Abutilon theophrasti [13] = assay: Herbicidal action pre-emergence, greenhouse pot test; conditions: application rate 320 g/ha
Method in brief: (§3)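 Seeds were sown in pots and covered with soil, then compounds formulated as WP or EC were sprayed onto the soil surface as aqueous suspension or emulsion with 0.5% additive at 600 L/ha water, 320 g/ha or lower. After about 3 weeks in the greenhouse, efficacy was scored visually as % versus untreated controls.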

Alopecurus myosuroides [14] = assay: as above; conditions: application rate 320 g/ha
Method in brief: as §3

Amaranthus retroflexus [15] = assay: as above
Method in brief: as §3

Avena fatua [16] = assay: as above; conditions: application rate 320 g/ha
Method in brief: as §3

Cyperus esculentus = assay: as above; conditions: application rate 320 g/ha
Method in brief: as §3

Echinochloa crus-galli [17] = assay: as above; conditions: application rate 320 g/ha
Method in brief: as §3

Hordeum murinum = assay: as above; conditions: application rate 320 g/ha
Method in brief: as §3

Lolium rigidum [18] = assay: as above; conditions: application rate 320 g/ha
Method in brief: as §3

Pharbitis purpurea [19] = assay: as above; conditions: application rate 320 g/ha
Method in brief: as §3

Polygonum convolvulus [20] = assay: as above; conditions: application rate 320 g/ha
Method in brief: as §3

Setaria viridis [21] = assay: as above; conditions: application rate 320 g/ha
Method in brief: as §3

Stellaria media [22] = assay: as above; conditions: application rate 320 g/ha
Method in brief: as §3

Veronica persica [23] = assay: as above; conditions: application rate 320 g/ha
Method in brief: as §3

Viola tricolor [24] = assay: as above; conditions: application rate 320 g/ha
Method in brief: as §3

Matricaria inodora [25] = assay: as above; conditions: application rate 320 g/ha
Excerpt: Seeds of mono- and dicotyledonous weeds and crop plants were laid out in plastic or organic plant pots and covered with soil. The compounds of the invention formulated in the form of wettable powders (WP) or as emulsion concentrates (EC) were then applied to the surface of the covering soil as an aqueous suspension or emulsion with addition of 0.5% additive at a water application rate equivalent to 600 L/ha. After the treatment, the pots were placed in a greenhouse and kept under good growth conditions for the test plants. After about 3 weeks, the efficacy of the preparations was scored visually as a percentage by comparison with untreated controls. For example, 100% efficacy=plants have died. 0% efficacy=like control plants. Tables B1 to B17 below show the efficacies of selected compounds of the general formula (I) […] aforementioned trial method.

Setaria viridis [26] = assay: Herbicidal action post-emergence, greenhouse pot test; conditions: application rate 20 g/ha
Method in brief: as §1

Row | Structure (SMILES) | Abutilon theophrasti (Efficacy in %) (Abutilon theophrasti [1]; application rate 80 g/ha) [%] | Alopecurus myosuroides (Efficacy in %) (Alopecurus myosuroides [2]) [%] | Amaranthus retroflexus (Efficacy in %) (Amaranthus retroflexus [3]; application rate 80 g/ha) [%] | Avena fatua (Efficacy in %) (Avena fatua [4]) [%] | Echinochloa crus-galli (Efficacy in %) (Echinochloa crus-galli [5]; application rate 80 g/ha) [%] | Lolium rigidum (Efficacy in %) (Lolium rigidum [6]) [%] | Matricaria inodora (Efficacy in %) (Matricaria inodora [7]; application rate 80 g/ha) [%] | Pharbitis purpurea (Efficacy in %) (Pharbitis purpurea [8]; application rate 80 g/ha) [%] | Polygonum convolvulus (Efficacy in %) (Polygonum convolvulus [9]) [%] | Stellaria media (Efficacy in %) (Stellaria media [10]; application rate 80 g/ha) [%] | Veronica persica (Efficacy in %) (Veronica persica [11]; application rate 80 g/ha) [%] | Abutilon theophrasti (Efficacy in %) (Abutilon theophrasti [13]) [%] | Cyperus esculentus (Efficacy in %) (Cyperus esculentus) [%] | Echinochloa crus-galli (Efficacy in %) (Echinochloa crus-galli [17]) [%] | Hordeum murinum (Efficacy in %) (Hordeum murinum) [%] | Pharbitis purpurea (Efficacy in %) (Pharbitis purpurea [19]) [%] | Polygonum convolvulus (Efficacy in %) (Polygonum convolvulus [20]) [%] | Setaria viridis (Efficacy in %) (Setaria viridis [21]) [%] | Veronica persica (Efficacy in %) (Veronica persica [23]) [%] | Matricaria inodora (Efficacy in %) (Matricaria inodora [25]) [%] | other results
1 | CNC(=O)COC(=O)C(C)Sc1cc(-n2c(=O)cc(C(F)(F)F)n(C)c2=O)c(F)cc1Cl (stereo not drawn) [I.1-182] | 100 | 80 | 100 | 90 | 100 | 100 | 100 | 100 | 100 | 100 | 100 | 100 | 80 | 100 | 90 | 100 | 100 | 100 | 100 | 100 | Viola tricolor (Efficacy in %) (Viola tricolor [12]; application rate 20 g/ha): 100%; Oryza sativa (Efficacy in %) (Oryza sativa): 20%; Triticum aestivum (Efficacy in %) (Triticum aestivum; application rate 5 g/ha): 10%; Zea mays (Efficacy in %) (Zea mays): 20%; Alopecurus myosuroides (Efficacy in %) (Alopecurus myosuroides [14]): 80%; Amaranthus retroflexus (Efficacy in %) (Amaranthus retroflexus [15]; application rate 80 g/ha): 100%; Avena fatua (Efficacy in %) (Avena fatua [16]): 90%; Lolium rigidum (Efficacy in %) (Lolium rigidum [18]): 100%; Stellaria media (Efficacy in %) (Stellaria media [22]): 100%; Viola tricolor (Efficacy in %) (Viola tricolor [24]): 100%
2 | CC(Sc1cc(-n2c(=O)cc(C(F)(F)F)n(C)c2=O)c(F)cc1Cl)C(=O)OC1CCNC1=O (stereo not drawn) [I.1-251] | 100 | 100 | 100 | 80 | 100 | 100 | 100 | 100 | 100 | 100 | 100 | 100 | 80 | 100 | 90 | 100 | 100 | 100 | 100 | 100 | Setaria viridis (Efficacy in %) (Setaria viridis [26]): 100%; Viola tricolor (Efficacy in %) (Viola tricolor [12]; application rate 80 g/ha): 100%; Oryza sativa (Efficacy in %) (Oryza sativa): 20%; Triticum aestivum (Efficacy in %) (Triticum aestivum; application rate 20 g/ha): 10%; Zea mays (Efficacy in %) (Zea mays): 10%; Alopecurus myosuroides (Efficacy in %) (Alopecurus myosuroides [14]): 100%; Amaranthus retroflexus (Efficacy in %) (Amaranthus retroflexus [15]; application rate 80 g/ha): 100%; Avena fatua (Efficacy in %) (Avena fatua [16]): 90%; Viola tricolor (Efficacy in %) (Viola tricolor [24]): 100%
3 | COC(=O)CC(CC(=O)OC)OC(=O)CSc1cc(-n2c(=O)cc(C(F)(F)F)n(C)c2=O)c(F)cc1Cl [I.8-127] |  | 80 |  | 80 |  | 90 |  |  | 100 |  |  | 100 | 90 | 100 | 90 | 100 | 100 | 100 | 100 | 100 | Abutilon theophrasti (Efficacy in %) (Abutilon theophrasti [1]; application rate 20 g/ha): 100%; Amaranthus retroflexus (Efficacy in %) (Amaranthus retroflexus [3]; application rate 20 g/ha): 100%; Echinochloa crus-galli (Efficacy in %) (Echinochloa crus-galli [5]; application rate 20 g/ha): 100%; Matricaria inodora (Efficacy in %) (Matricaria inodora [7]; application rate 20 g/ha): 100%; Pharbitis purpurea (Efficacy in %) (Pharbitis purpurea [8]; application rate 20 g/ha): 100%; Setaria viridis (Efficacy in %) (Setaria viridis [26]): 100%; Stellaria media (Efficacy in %) (Stellaria media [10]; application rate 20 g/ha): 100%; Veronica persica (Efficacy in %) (Veronica persica [11]; application rate 20 g/ha): 100%; Viola tricolor (Efficacy in %) (Viola tricolor [12]; application rate 80 g/ha): 100%; Amaranthus retroflexus (Efficacy in %) (Amaranthus retroflexus [15]; application rate 20 g/ha): 100%; Lolium rigidum (Efficacy in %) (Lolium rigidum [18]): 90%; Stellaria media (Efficacy in %) (Stellaria media [22]): 100%
